This is an account of results in the supplement of paper PMC8092582.

In the assay the test system is HeLa. In words: cell viability (CellTiter-Glo) relative to median of lowest-dilution wells of all drugs (fraction); higher = more viable cells. Here is the method: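 HeLa control and CRISPR DDX11 knockout cells were seeded in 384-well plates and incubated for 72 h with each of 64 […] drugs at six concentrations. Viability was read with CellTiter-Glo and normalised to the median of the lowest (6th) dilution wells of all drugs. Two biological replicates (BR1, BR2) are averaged; the concentration unit is not stated.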
(Cellular ATP, detected with luciferase, serves as a proxy for viable cell number.)

[1] abbreviates: drug concentration (unit not stated): 0.04, genotype: DDX11 knockout.
[2] abbreviates: drug concentration (unit not stated): 0.04, genotype: control (DDX11 wild type).
Setting [3] is: drug concentration (unit not stated): 0.12, genotype: DDX11 knockout.
Where [4] appears, read: drug concentration (unit not stated): 0.12, genotype: control (DDX11 wild type).
Where [5] appears, read: drug concentration (unit not stated): 0.37, genotype: DDX11 knockout.
[6] abbreviates: drug concentration (unit not stated): 0.37, genotype: control (DDX11 wild type).
[7] abbreviates: drug concentration (unit not stated): 1.11, genotype: DDX11 knockout.
Setting [8] is: drug concentration (unit not stated): 1.11, genotype: control (DDX11 wild type).
Where [9] appears, read: drug concentration (unit not stated): 3.33, genotype: DDX11 knockout.
Setting [10] is: drug concentration (unit not stated): 3.33, genotype: control (DDX11 wild type).
[11] abbreviates: drug concentration (unit not stated): 10, genotype: DDX11 knockout.
Setting [12] is: drug concentration (unit not stated): 10, genotype: control (DDX11 wild type).
The mark [13] stands for this setting: drug concentration (unit not stated): 0.01, genotype: DDX11 knockout.
The mark [14] stands for this setting: drug concentration (unit not stated): 0.01, genotype: control (DDX11 wild type).

Each structure is given as a SMILES string. ± gives the standard deviation of the averaged measurements.

For `O=c1[nH]cc(F)c(=O)[nH]1` [Adrucil (Fluorouracil)], the cell viability runs as follows: under setting [1], 1 ± 0.034; under setting [2], 0.976 ± 0.016; under setting [3], 1.03 ± 0.046; under setting [4], 1 ± 0.031; under setting [5], 1.06 ± 0.046; under setting [6], 1.03 ± 0.032. The compound also registered a cell viability under setting [7] of 1.01 ± 0.073; a cell viability under setting [8] of 1.05 ± 0.23; a cell viability under setting [9] of 0.928 ± 0.26; a cell viability under setting [10] of 1.02 ± 0.45; a cell viability under setting [11] of 0.817 ± 0.14; a cell viability under setting [12] of 0.945 ± 0.37.
Regarding `COc1cc(Nc2ncc3c(n2)-c2ccc(Cl)cc2C(c2c(F)cccc2OC)=NC3)ccc1C(=O)O` [Alisertib], the cell viability turned out to be 1.056 ± 0.0065 under setting [13]; 1.044 ± 0.0066 under setting [14]; 0.996 ± 0.016 under setting [1]; 1.03 ± 0.1 under setting [2]; 0.752 ± 0.019 under setting [3]; 0.966 ± 0.34 under setting [4]. The cell viability by setting is: under setting [5], 0.7 ± 0.092; under setting [6], 0.844 ± 0.23; under setting [7], 0.859 ± 0.029; under setting [8], 0.919 ± 0.16; under setting [9], 0.781 ± 0.041; under setting [10], 0.827 ± 0.12.
Take `CN1CC[C@H](c2c(O)cc(O)c3c(=O)cc(-c4ccccc4Cl)oc23)[C@H](O)C1` [Alvocidib (Flavopiridol)]: the cell viability stood at 1.03 ± 0.079 under setting [13]; 1.02 ± 0.067 under setting [14]; 1.11 ± 0.067 under setting [1]; 1.09 ± 0.031 under setting [2]; 0.972 ± 0.013 under setting [3]; 1.16 ± 0.29 under setting [4]. Moreover, the cell viability runs as follows: under setting [5], 0.106 ± 0.023; under setting [6], 0.172 ± 0.022; under setting [7], 0.163 ± 0.036; under setting [8], 0.244 ± 0.086; under setting [9], 0.0793 ± 0.033; under setting [10], 0.11 ± 0.0096.
With `C[C@@]1(CO)[C@H](O)CC[C@@]2(C)[C@H]1CC[C@H]1C[C@@H]3C[C@@]12CC[C@]3(O)CO` [Aphidicolin], the cell viability reads like this: under setting [1], 1.02 ± 0.036; under setting [2], 1.06 ± 0.031; under setting [3], 1.06 ± 0.089; under setting [4], 1.08 ± 0.11; under setting [5], 0.91 ± 0.027; under setting [6], 1.06 ± 0.24. The cell viability under setting [7] was 0.58 ± 0.046; the cell viability under setting [8] was determined as 0.79 ± 0.27; the cell viability under setting [9] turned out to be 0.428 ± 0.045; the cell viability under setting [10] amounted to 0.523 ± 0.16; the cell viability under setting [11] worked out at 0.182 ± 0.027; the cell viability under setting [12] worked out at 0.23 ± 0.13.
For the compound `Nc1ncn([C@@H]2O[C@H](CO)[C@@H](O)[C@H]2O)c(=O)n1` [Azacitidine], the cell viability by setting is: under setting [1], 1.03 ± 0.04; under setting [2], 1.03 ± 0.044; under setting [3], 1.03 ± 0.019; under setting [4], 1.04 ± 0.0078; under setting [5], 1.01 ± 0.046; under setting [6], 1.05 ± 0.021. In addition, the cell viability under setting [7] was found to be 1.0191 ± 0.00066; the cell viability under setting [8] is 1.05 ± 0.013; the cell viability under setting [9] worked out at 1.05 ± 0.063; the cell viability under setting [10] amounted to 1.03 ± 0.028; the cell viability under setting [11] came out at 0.872 ± 0.12; the cell viability under setting [12] turned out to be 0.89 ± 0.28.
For `CC(C)C[C@H](NC(=O)[C@H](Cc1ccccc1)NC(=O)c1cnccn1)B(O)O` [Bortezomib (Velcade)], the cell viability is 0.863 ± 0.14 under setting [13]; 0.807 ± 0.22 under setting [14]; 0.215 ± 0.22 under setting [1]; 0.169 ± 0.17 under setting [2]; 0.0261 ± 0.012 under setting [3]; 0.0235 ± 0.00034 under setting [4]. Further, the cell viability is, setting by setting: under setting [5], 0.0196 ± 0.002; under setting [6], 0.0189 ± 0.00099; under setting [7], 0.0168 ± 0.0011; under setting [8], 0.0168 ± 0.0026; under setting [9], 0.0124 ± 0.00057; under setting [10], 0.0137 ± 0.003.
On to `Nc1cc(C(F)(F)F)c(-c2cc(N3CCOCC3)nc(N3CCOCC3)n2)cn1` [Buparlisib (BKM-120)], for which the cell viability under setting [1] came out at 1.01 ± 0.023; the cell viability under setting [2] came to 1.01 ± 0.039; the cell viability under setting [3] was determined as 0.963 ± 0.035; the cell viability under setting [4] is 0.999 ± 0.046; the cell viability under setting [5] was found to be 0.881 ± 0.18; the cell viability under setting [6] was 0.92 ± 0.2. The compound also had a cell viability under setting [7] of 0.625 ± 0.13; a cell viability under setting [8] of 0.772 ± 0.3; a cell viability under setting [9] of 0.248 ± 0.08; a cell viability under setting [10] of 0.247 ± 0.11; a cell viability under setting [11] of 0.045 ± 0.0024; a cell viability under setting [12] of 0.0382 ± 0.001.
`O=C(O)C1(C(=O)O)CCC1.[NH2-].[NH2-].[Pt+2]` [Carboplatin] displayed a cell viability under setting [3] of 0.981 ± 0.017; a cell viability under setting [4] of 1.013 ± 0.0026; a cell viability under setting [5] of 0.909 ± 0.031; a cell viability under setting [6] of 1.03 ± 0.039; a cell viability under setting [7] of 0.829 ± 0.04; a cell viability under setting [8] of 1.05 ± 0.14. Also, the cell viability under setting [9] amounted to 0.425 ± 0.056; the cell viability under setting [10] is 0.904 ± 0.45; the cell viability under setting [11] was found to be 0.165 ± 0.021; the cell viability under setting [12] came out at 0.331 ± 0.16; the cell viability (drug concentration (unit not stated): 30, genotype: DDX11 knockout) amounted to 0.0472 ± 0.0054; the cell viability (drug concentration (unit not stated): 30, genotype: control (DDX11 wild type)) came to 0.0483 ± 0.0055.
`CC(C)C[C@H](NC(=O)[C@H](CCc1ccccc1)NC(=O)CN1CCOCC1)C(=O)N[C@@H](Cc1ccccc1)C(=O)N[C@@H](CC(C)C)C(=O)[C@@]1(C)CO1` [Carfilzomib] gave a cell viability under setting [13] of 0.6 ± 0.63; a cell viability under setting [14] of 1.11 ± 0.022; a cell viability under setting [1] of 0.512 ± 0.7; a cell viability under setting [2] of 1.1 ± 0.07; a cell viability under setting [3] of 0.414 ± 0.57; a cell viability under setting [4] of 1.02 ± 0.14. The same compound registered a cell viability under setting [5] of 0.0394 ± 0.035, a cell viability under setting [6] of 0.385 ± 0.37, a cell viability under setting [7] of 0.00988 ± 0.0031 and a cell viability under setting [8] of 0.0166 ± 0.0079.
With `CCCCCCNC(=O)n1cc(F)c(=O)[nH]c1=O` [Carmofur], the cell viability by setting is: under setting [1], 1.01 ± 0.038; under setting [2], 0.998 ± 0.026; under setting [3], 1.02 ± 0.019; under setting [4], 1.007 ± 0.0099; under setting [5], 1.09 ± 0.081; under setting [6], 1.05 ± 0.044. In addition, the cell viability is, setting by setting: under setting [7], 1.02 ± 0.093; under setting [8], 1.07 ± 0.22; under setting [9], 0.956 ± 0.24; under setting [10], 1.03 ± 0.46; under setting [11], 0.857 ± 0.2; under setting [12], 0.924 ± 0.39.
Consider `O=C(O)CCCc1ccc(N(CCCl)CCCl)cc1` [Chlorambucil], for which the cell viability runs as follows: under setting [1], 1.061 ± 0.009; under setting [2], 0.974 ± 0.056; under setting [3], 1.02 ± 0.062; under setting [4], 0.9875 ± 0.0097; under setting [5], 1.05 ± 0.11; under setting [6], 1.02 ± 0.012. Further, the cell viability reads like this: under setting [7], 1.06 ± 0.057; under setting [8], 0.999 ± 0.021; under setting [9], 1.07 ± 0.042; under setting [10], 1.05 ± 0.082; under setting [11], 0.925 ± 0.1; under setting [12], 1.03 ± 0.051.
Take `N.N.[Cl][Pt][Cl]` [Cisplatin]: the cell viability runs as follows: under setting [1], 0.76437 ± 0.00042; under setting [2], 0.986 ± 0.093; under setting [3], 0.541 ± 0.11; under setting [4], 0.885 ± 0.29; under setting [5], 0.233 ± 0.12; under setting [6], 0.464 ± 0.12. Moreover, the cell viability was found to be 0.0768 ± 0.043 under setting [7]; 0.112 ± 0.0088 under setting [8]; 0.0231 ± 0.0084 under setting [9]; 0.024 ± 0.0028 under setting [10]; 0.0148 ± 0.0023 under setting [11]; 0.0159 ± 0.0015 under setting [12].
